Earlier results in patent US7250518B2, “Nicotinamide acids, amides, and their mimetics active as inhibitors of PDE4 isozymes” (Pfizer Inc., priority 2001, dated 2007).
Read-outs that look alike come from different tables or passages of the source.

Legend:
[1] = system: antigen-induced bronchospasm; conditions: rat
[2] = system: histamine- and antigen-induced bronchoconstriction, eosinophilia, AHR; conditions: guinea-pig
rheumatoid arthritis = conditions: 35 patients, t.i.d., placebo-controlled
[3] = system: lipopolysaccharide-induced mesenteric blood flow fall; conditions: inhibiting lipopolysaccharide-induced mesenteric blood flow fall
[4] = system: human peripheral blood mononuclear cells (HPBM); conditions: normal patients and subjects with atopic dermatitis
[5] = system: bone mineral density of femurs; conditions: serial oral administrations
inflammatory parameters = conditions: topical, bilaterally over eight days, twenty patients
TNF-α and IL-6 levels = conditions: 1 mg/kg/hr over 24 hours
[6] = system: lipopolysaccharide-induced bowel erythrocyte extravasation; conditions: rats, i.p. 3× pretreatment
[7] = in vivo
[8] = system: high-affinity rolipram binding site (Sr)
[9] = system: PDE4 derived from tumor cells; conditions: read-out: IC50 against a PDE4 derived from tumor cells
[10] = system: dextran sulfate induced colitis; conditions: rat
[11] = system: PHA stimulated atopic dermatitis PBMC; conditions: read-out: IC50, inhibition of PHA stimulated atopic dermatitis PBMC proliferation
[12] = system: PHA stimulated normal PBMC; conditions: read-out: IC50, inhibition of PHA stimulated normal PBMC proliferation
[13] = system: croton oil-induced ear inflammation; conditions: mouse
[14] = system: collagen II induced arthritis
[15] = system: T-cell mediated hepatic failure
[16] = system: experimental allergic encephalomyelitis; conditions: marmoset
[17] = system: chronic relapsing experimental allergic encephalomyelitis; conditions: SJL mice
[18] = system: antigen-induced bronchoconstriction; conditions: guinea-pig
[19] = system: TNF release and lymphocyte proliferation; conditions: oral dose of 300 mg
[20] = COPD patients, 15 mg b.i.d., week 6
[21] = oral 5, 10, and 15 mg b.id., week 2
[22] = system: in vitro guinea-pig models of asthma; conditions: read-out: IC50 in standard in vitro guinea-pig models of asthma
[23] = system: seratonin-induced bronchoconstriction; conditions: dog
[24] = system: late reactions to inhaled allergen; conditions: 9.5 days oral, 15 and 30 mg, bronchial asthma patients
guinea-pig lung PDE4 = conditions: read-out: IC50 against guinea-pig lung PDE4
TNF production = conditions: read-out: IC50 as an inhibitor of TNF production
epidermal basal cells = conditions: primary culture
[25] = system: keratomed psoriatic epidermis; conditions: over controls
psoriatic lesions = conditions: two double-blind studies versus vehicle
PDE4 in U937 cells = conditions: read-out: IC50 as PDE4 inhibitor in U937 cells
[26] = rat
[27] = rat; remark: listed apart in the source
[28] = 54 subjects, doses up to 400 mg
[29] = system: antigen-induced eosinophilia; conditions: rat
rhinorrhea = conditions: antigen-challenged pig
canine tracheal PDE4 = conditions: at 100 nM
[30] = system: bronchoconstriction, BAL eosinophilia, AHR; conditions: in vivo
[31] = system: antigen-induced lung eosinophilia, BAL eosinophilia, AHR; conditions: guinea-pig

COc1ccc(CNc2c(C)noc2C)cc1OC1CCCC1 [RPR-132294]
Inhibition of antigen-induced bronchospasm [1]: activity

O=c1c2[nH]cnc2c2cccnc2n1-c1ccccc1 [KF17625]
Inhibition of histamine- and antigen-induced bronchoconstriction, PAF- and antigen-induced eosinophilia, AHR, bronchospasm [2]: activity

COc1ccc(C(=O)Nc2c(Cl)cncc2Cl)cc1OC1CCCC1 [RP73401]
Clinical effect in rheumatoid arthritis (rheumatoid arthritis): positive trend towards clinical improvement

CCCCn1c(=O)c2c(ncn2CC(C)=O)n(CCCC)c1=O [denbufylline]
Potency relative to pentoxifylline [3]: 100 fold
Inhibition of the proliferation of HPBM [4]: concentration-related inhibition
Effect on bone mineral density of femurs [5]: inhibit the decrease in the bone mineral density

COc1ccc(C2CNC(=O)NC2)cc1O[C@H]1C[C@@H]2CC[C@H]1C2 [atizoram]
Effect on inflammatory parameters (inflammatory parameters): effectively inhibit all of the inflammatory parameters tested

CC(=O)CCCCn1c(=O)c2c(ncn2C)n(C)c1=O [pentoxifylline]
IL-6 levels (TNF-α and IL-6 levels): significantly increased
TNF-α levels (TNF-α and IL-6 levels): significantly lowered
Effect on lipopolysaccharide-induced bowel erythrocyte extravasation [6]: reduces

O=c1c2cccnc2n(-c2cccc([N+](=O)[O-])c2)c(=O)n1Cc1ccncc1 [RS-23,544]
Emesis, nausea and vomiting [7]: elicit emesis
Affinity at the Sr [8]: high affinity

Clc1nc2c(N3CCCC3)nc(N3CCNCC3)nc2nc1NCc1ccccc1 [Formula (0.0.55)]
IC50 [9]: 16 nM
Concentrations inhibiting the growth of tumor cells (tumor cells): micromolar concentrations

CCCn1c(=O)c2[nH]cnc2n(-c2ccc(Cl)cc2)c1=O [LAS31025]
Effect in dextran sulfate induced colitis [10]: beneficial effects comparable to prednisolone

COc1ccc(C2CNC(=O)C2)cc1OC1CCCC1 (stereo not shown) [rolipram]
IC50 [11]: 280 nM
IC50 [12]: 2600 nM
Topical dose inhibiting croton oil-induced ear inflammation [13]: ≥ 0.03 mg per ear
Effect on appearance of arthritic symptoms ([14]; 2 mg/kg twice daily for five days before onset of arthritis): significantly delayed the appearance of arthritic symptoms
Effect on development of the disease ([14]; 3 mg/kg twice daily when arthritis was apparent): progression of severity was halted
Inhibition of the proliferation of HPBM [4]: concentration-related inhibition
Effect in dextran sulfate induced colitis [10]: beneficial effects comparable to prednisolone
Effect on lipopolysaccharide-induced bowel erythrocyte extravasation [6]: reduces
IL-10 levels ([15]; 0.1 to 10 mg/kg i.p.): significantly elevates
Plasma activities of liver enzymes ALT, AST, and SDH ([15]; 0.1 to 10 mg/kg i.p.): dose-dependently inhibited
Plasma TNF-α and INF-γ concentrations ([15]; 0.1 to 10 mg/kg i.p. 30 minutes before concanavalin A or staphylococcal enterotoxin B): significantly reduce
Effect on clinical signs [16]: suppress the appearance of clinical signs
Effect on clinical signs and pathological changes [17]: ameliorates clinical signs and pathological changes

CCNc1ncn(Cc2ccc(OC)c(OC3CCCC3)c2)c2nc(C(C)C)nc1-2 [Example V-11294A]
Inhibition of antigen-induced bronchoconstriction [18]: active
Effect on LPS-stimulated ex vivo TNF release and PHA induced lymphocyte proliferation [19]: effective in reducing TNF levels and lymphocyte proliferation

Nc1nc2c([nH]1)c(=O)n(CC1CC1)c(=O)n2CC1CC1 [BRL-61,063]
Emesis, nausea and vomiting [7]: adverse events of nausea and vomiting

COc1ccc([C@]2(C#N)CC[C@@H](C(=O)O)CC2)cc1OC1CCCC1 [SB-207,499]
Improvement in trough FEV1 [20]: 11%
Maximum mean difference in trough FEV1 compared with placebo [20]: 160 mL
Change in trough FEV1 from placebo [21]: significant increases
Affinity at the Sr [8]: comparatively low affinity

CCCn1c(=O)c2[nH]cnc2n(-c2ccc(Cl)cc2)c1=O [LAS-31025]
Inhibition of antigen-induced bronchoconstriction [18]: active

COc1ccc(-c2nc3cnccc3o2)c2c1OC1(CCCC1)C2 [Formula (0.0.48)]
IC50 (PDE4; read-out: IC50 as PDE4 inhibitor): 2.5 nM

O=C(Nc1c(Cl)cncc1Cl)c1ccc(OC(F)F)c(OCC2CC2)c1 [Roflumilast]
IC50 [22]: 3.5 nM

O=C(Nc1c(Cl)cncc1Cl)C(=O)c1cn(Cc2ccc(F)cc2)c2ccc(O)cc12 [AWD-12,281]
Activity in a rat model of allergic rhinitis (allergic rhinitis): active

COc1ccc(/C(C)=N/OC(N)=O)cc1OC1CCCC1 [WAY-PDA-641]
Inhibition of seratonin-induced bronchoconstriction [23]: active

COc1ccc([C@H](Cc2ccncc2)c2ccccc2)cc1OC1CCCC1 [CDP840]
Effect on late reactions to inhaled allergen [24]: suppression of late reactions to inhaled allergen
Emesis, nausea and vomiting [7]: without any adverse events of nausea or headache
Affinity at the Sr [8]: comparatively low affinity

CCOc1cc2cc(CO)c(CO)c(-c3ccnc(-n4nc(-c5cccnc5)c5ccccc5c4=O)c3)c2cc1OCC [Example T-2585]
IC50 (guinea-pig lung PDE4): 0.13 nM

COc1ccc(C(CC(N)=O)N2C(=O)c3ccccc3C2=O)cc1OC1CCCC1 (stereo not shown) [Formula (0.0.32)]
IC50 (PDE4; read-out: IC50 as an inhibitor of PDE4): 0.042 nM
IC50 (TNF production): 130 nM

COc1ccc(CC2CNC(=O)N2)cc1OC1CCCC1 (stereo not shown) [Ro 20-1724]
Increase in cAMP concentrations (epidermal basal cells): three-fold
Increase in cAMP concentration [25]: 1395%
Effect on psoriatic lesions (psoriatic lesions): improve psoriatic lesions without adverse systemic or cutaneous effects

O=c1c2c(ncn2Cc2cccnc2)c2cccnc2n1-c1ccccc1 [KF19514]
Inhibition of histamine- and antigen-induced bronchoconstriction, PAF- and antigen-induced eosinophilia, AHR, bronchospasm [2]: activity

Cc1cc2c3c(c1)C(c1ccccc1)=N[C@@H](NC(=O)c1ccncc1)C(=O)N3CC2 [CI-1018]
IC50 (PDE4 in U937 cells): 1100 nM
Oral bioavailability [26]: 57%
ED50, oral potency [27]: 5 mg/kg
Adverse events [28]: no adverse events
Inhibition of antigen-induced eosinophilia [29]: active

CCCn1c(=O)c2c(C)nc(CC)n2c2nc(OC)ccc21 [Example D-22888]
Effect on rhinorrhea (rhinorrhea): inhibit rhinorrhea

COc1ccc(C2CNC(=O)NC2)cc1O[C@H]1C[C@@H]2CC[C@H]1C2 [CP-80,633]
Emesis, nausea and vomiting [7]: elicit emesis
Affinity at the Sr [8]: high affinity

COc1ccc(C(=O)Cc2c(Cl)c[n+]([O-])cc2Cl)c2c1OCCCCO2 [Formula (0.0.49)]
Inhibition of canine tracheal PDE4 (canine tracheal PDE4): almost complete inhibition

CCCCn1c(=O)c2c(ncn2CC(C)=O)n(CCCC)c1=O [debufylline]
Effect on lipopolysaccharide-induced bowel erythrocyte extravasation [6]: reduces

CCOc1cc2cc(CO)c(CO)c(-c3ccn(CCOC)c(=O)c3)c2cc1OCC [Example T-440]
Inhibition of early and late phase bronchoconstriction, BAL eosinophilia, ozone-induced AHR and airway epithelial injury [30]: activity

COc1ccc(C(=O)Nc2c(Cl)cncc2Cl)cc1OC1CCCC1 [RP-73,401]
Inhibition of antigen-induced lung and BAL eosinophilia, EPO, PAF- and ozone-induced AHR, IL-5 induced pleural eosinophila [31]: active
Emesis, nausea and vomiting [7]: elicit emesis
Affinity at the Sr [8]: high affinity
